From patent publication US9783586B2, “Inhibitors of the linear ubiquitin chain assembly complex (LUBAC) and related methods” (The United States of America, as represented by the …, priority 2013, dated 2017) come the findings set out here.

What all share (format): cell-based
The subject of one assay is NF-κB. Kind of assay: NF-κB luciferase reporter assay. As to conditions: for Relative NF-κB-luciferase reporter activity: HBL1 ABC DLBCL cells, 5 μM or 20 μM, 2 days, relative to DMSO (FIG. 4). As to the method:
A third experiment was done using a different reporter system for NF-κB activity. HBL1 and TMD8 ABC DLBCL lines cell lines were created with an NF-κB transcriptional reporter by transduction with lentiviral particles containing an inducible NF-κB-responsive luciferase reporter construct (SA Biosciences, Valencia, Calif.) and selected with puromycin. Luciferase activity was measured using the DUAL-LUCIFERASE™ Reporter Assay System (Promega) on a Microtiter Plate Luminometer (Dyn-Ex Technologies, Chantilly, Va.). The transduced HBL and TMD8 cell lines were then transfected with constructs that inducibly express control (SC4) or RNF31 shRNAs described above. Expression of shRNAs was induced using doxycyline, and the luciferase reporter activity in shRNF31 expression cells was measured and normalized relative to control (SC4). Cells were also treated with the specific IKKβ inhibitor (MLN120B) as a positive control. Experiments were done in triplicate, and results are shown in FIG. 2C (error bars indicate SEM).
The ability of these peptides to inhibit NF-κB activity in ABC DLBCL was determined using the NF-κB luciferase reporter assay described above. Negative control cells were treated with dimethyl sulfoxide (DMSO), and positive control cells were treated with Bruton's tyrosine kinase (Btk) inhibitor ibrutinib. […] Cells were treated with peptides at concentrations of 5 μM or 20 μM for 2 days. Relative NF-κB-luciferase reporter activity was normalized and measured relative to control (DMSO-treated) cells. The results of triplicate experiments are shown in FIG. 4 (error bars indicate the SEM).
(A reporter such as luciferase makes a cellular process visible.)

Another assay concerns the target T1, RBCK1/RNF31 interaction (Homo sapiens, UniProt Q9BYM8).
T1 construct: expressed in transfected cells; host or cells: HEK-293
T1 sequence (Q9BYM8 1-510): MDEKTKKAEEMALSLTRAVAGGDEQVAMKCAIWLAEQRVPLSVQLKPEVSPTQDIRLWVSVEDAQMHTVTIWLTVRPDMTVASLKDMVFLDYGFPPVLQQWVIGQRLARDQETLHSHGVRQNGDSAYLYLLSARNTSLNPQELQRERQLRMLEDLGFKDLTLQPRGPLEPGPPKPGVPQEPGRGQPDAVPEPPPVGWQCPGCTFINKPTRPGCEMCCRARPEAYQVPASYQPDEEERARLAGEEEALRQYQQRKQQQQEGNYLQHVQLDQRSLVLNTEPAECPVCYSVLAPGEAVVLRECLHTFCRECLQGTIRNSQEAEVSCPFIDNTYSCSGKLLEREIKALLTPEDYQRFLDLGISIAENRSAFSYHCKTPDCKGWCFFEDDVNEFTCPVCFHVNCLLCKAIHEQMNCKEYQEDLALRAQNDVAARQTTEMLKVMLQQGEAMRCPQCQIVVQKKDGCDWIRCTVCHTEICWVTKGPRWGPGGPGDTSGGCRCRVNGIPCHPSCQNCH
Kind of assay: RBCK1/RNF31 co-immunoprecipitation (LUBAC complex formation) in co-transfected HEK-293 cells. As to conditions: for RBCK1/RNF31 interaction (anti-HA immunoprecipitation, densitometry): HEK-293 cells, 5 μM or 20 μM, 24 hours, relative to DMSO (FIGS. 5, 6).

Another assay has as its system ABC DLBCL cell lines. As to the kind of experiment: MTS cell viability assay, ABC DLBCL. On the procedure: (§1) ABC and GCB DLBCL cell lines were treated with RNF31 stapled peptides of Table 2 at concentrations of 5 μM or 20 μM for four days. Cell viability was determined using the following MTS assay. Cells were plated in triplicate at a density of 15,000 cells per well in 96-well plates. Cell viability after indicated treatments was assayed by adding 3-(4,5-dimethylthiazol-2-yl)-5-(3-carboxymethoxyphenyl)-2-(4-sulphophenyl)-2H tetrazolium and an electron coupling reagent (phenazine methosulphate from Promega, Madison, Wis.), incubated for 3 hours and measured by the amount of 490 nm absorbance using a 96-well plate reader. The background was subtracted using a media only control. The results of these MTS assays done in triplicate are shown in FIGS. 7A-7D (error bars indicate the SEM), and cell viability is expressed as the fraction of cells remaining after four days treatment, relative to the initial number of cells at the start of treatment (time 0). The results of MTS cell viability assay indicate that amino-terminal cross-linked peptides RNF31-N (SEQ ID NO: 11) and RNF31-NC (SEQ ID NO: 12) were toxic to ABC DLBCL cell lines but had little effect on GCB DLBCL cell lines tested.

Another assay deals with GCB DLBCL cell lines. As to the kind of experiment: MTS cell viability assay, GCB DLBCL. As to conditions: 5 μM or 20 μM, four days (FIGS. 7A-7D). On the procedure:
as §1
Background: Tetrazolium assays rely on reduction of a dye to a coloured formazan, in cell work by metabolically active cells.

The test system of a further assay is IκBα. Kind of assay: IκBα-luciferase reporter assay. As to conditions: ABC DLBCL cells, Example 10 (FIG. 8B). An excerpt: In a second experiment, HBL1 and TMD8 ABC DLBCL lines were engineered to contain an NF-κB-driven luciferase reporter. Vectors expressing an IκBα-luciferase fusion protein were constructed using Photinus luciferase from pGL3 vector (Promega, Madison, Wis.) as the reporter and Renilla luciferase construct from phRL-TK (Promega) was used for normalization. Stable clones were identified that were responsive to […] (see Lam et al, Clin Cancer Res, 11: 28-40 (2005)). After development with the DUAL-GLO luciferase assay system (Promega), the ratio of IκBα-Photinus to Renilla luminescence was normalized to that in untreated or uninduced cultures. The IκBα assay, which relies on the correlation between NF-κB activity and IKKβ kinase activity, was previously described in Lenz et al, Science, 319: 1676-1679 (2008). In brief, IKKβ kinase phosphorylates IκBα, which leads to degradation of IκBα (an inhibitor of NF-κB) and thereby activates NF-κB.
The engineered cells were transfected with control (SC4) or RNF31 shRNAs under the control of a doxycyline promoter as described in Example 2. Expression of shRNA was induced with doxycyline, and relative amounts of NF-κB Luciferase reporter activity was measured and normalized relative to control (SC4) shRNA. As additional controls, the expression of NF-κB Luciferase reporter activity was measured in cells that were not expressing shRNAs and which were either treated with the specific IKKβ inhibitor (“MLM-120B”) or untreated (“No Rx”). Experiments were done in triplicate and the results are shown in FIG. 2B (error bars indicate standard error of the mean (SEM)).

Setting [1] is: ABC DLBCL cell lines, 5 μM or 20 μM, four days (FIGS. 7A-7D).

Entries after “also recorded” stand apart in the source; their conditions may differ. Positions of bridges follow the written chain, without caps; N, C: chain ends. Non-standard residues stand in square brackets, D forms with d. Residues, ends and D or L forms follow the SMILES beside them. S5 = C=CCCC[C@](C)(N)C(=O)O; βAla = NCCC(=O)O

For the compound “Ac-βAla Ser Arg Xaa Leu Thr Glu Xaa Gln Arg Gln Arg Leu Glu Pro Phe Arg Gln Arg Xaa Trp Asp Ser Xaa-NH2 (Ac-[βAla]SR[S5]LTE[S5]QRQRLEPFRQR[S5]WDS[S5]-NH2; staple 20-24, 4-8; SMILES CC(=O)NCCC(=O)N[C@@H](CO)C(=O)N[C@@H](CCCNC(=N)N)C(=O)N[C@@]1(C)CCCC=CCCC[C@@](C)(C(=O)N[C@@H](CCC(N)=O)C(=O)N[C@@H](CCCNC(=N)N)C(=O)N[C@@H](CCC(N)=O)C(=O)N[C@@H](CCCNC(=N)N)C(=O)N[C@@H](CC(C)C)C(=O)N[C@@H](CCC(=O)O)C(=O)N2CCC[C@H]2C(=O)N[C@@H](Cc2ccccc2)C(=O)N[C@@H](CCCNC(=N)N)C(=O)N[C@@H](CCC(N)=O)C(=O)N[C@@H](CCCNC(=N)N)C(=O)N[C@@]2(C)CCCC=CCCC[C@@](C)(C(N)=O)NC(=O)[C@H](CO)NC(=O)[C@H](CC(=O)O)NC(=O)[C@H](Cc3c[nH]c4ccccc34)NC2=O)NC(=O)[C@H](CCC(=O)O)NC(=O)[C@H]([C@@H](C)O)NC(=O)[C@H](CC(C)C)NC1=O) [RNF31-NC]”, in the assay with NF-κB, the “Relative NF-κB-luciferase reporter activity” value is given as “strongly inhibit NF-κB”. Also, the “RBCK1/RNF31 interaction (anti-HA immunoprecipitation, densitometry)” value in the assay with RBCK1/RNF31 interaction is recorded as “inhibited RBCK1/RNF31 interaction in a dose-dependent fashion”. Also, the “Cell viability (MTS)” value is recorded as “toxic” in the assay on ABC DLBCL cell lines (setting [1]) and “little effect” in the assay with GCB DLBCL cell lines.

With “Ac-βAla Ser Arg Xaa Leu Thr Glu Xaa Gln Arg Gln Arg Leu Glu Pro Phe Arg Gln Arg Leu Trp Asp Ser-NH2 (Ac-[βAla]SR[S5]LTE[S5]QRQRLEPFRQRLWDS-NH2; staple 4-8; SMILES CC(=O)NCCC(=O)N[C@@H](CO)C(=O)N[C@@H](CCCNC(=N)N)C(=O)N[C@@]1(C)CCCC=CCCC[C@@](C)(C(=O)N[C@@H](CCC(N)=O)C(=O)N[C@@H](CCCNC(=N)N)C(=O)N[C@@H](CCC(N)=O)C(=O)N[C@@H](CCCNC(=N)N)C(=O)N[C@@H](CC(C)C)C(=O)N[C@@H](CCC(=O)O)C(=O)N2CCC[C@H]2C(=O)N[C@@H](Cc2ccccc2)C(=O)N[C@@H](CCCNC(=N)N)C(=O)N[C@@H](CCC(N)=O)C(=O)N[C@@H](CCCNC(=N)N)C(=O)N[C@@H](CC(C)C)C(=O)N[C@@H](Cc2c[nH]c3ccccc23)C(=O)N[C@@H](CC(=O)O)C(=O)N[C@@H](CO)C(N)=O)NC(=O)[C@H](CCC(=O)O)NC(=O)[C@H]([C@@H](C)O)NC(=O)[C@H](CC(C)C)NC1=O) [RNF31-N]”, the “Relative NF-κB-luciferase reporter activity” value in the assay with NF-κB is “strongly inhibit NF-κB”. Moreover, the “RBCK1/RNF31 interaction (anti-HA immunoprecipitation, densitometry)” value with RBCK1/RNF31 interaction is recorded as “inhibited RBCK1/RNF31 interaction in a dose-dependent fashion”. Further, the “Cell viability (MTS)” value in the assay with ABC DLBCL cell lines (setting [1]) was “toxic”; in the assay on GCB DLBCL cell lines it was “little effect”.

For `CC(=O)NCCC(=O)N[C@@H](CO)C(=O)N[C@@H](CCCNC(=N)N)C(=O)N[C@@]1(C)CCCC=CCCC[C@@](C)(C(=O)N[C@@H](CCC(N)=O)C(=O)N[C@@H](CCCNC(=N)N)C(=O)N[C@@H](CCC(N)=O)C(=O)N[C@@H](CCCNC(=N)N)C(=O)N[C@@H](CC(C)C)C(=O)N[C@@H](CCC(=O)O)C(=O)N2CCC[C@H]2C(=O)N[C@@H](Cc2ccccc2)C(=O)N[C@@H](CCCNC(=N)N)C(=O)N[C@@H](CC(C)C)C(=O)N[C@@H](CCCNC(=N)N)C(=O)N[C@@]2(C)CCCC=CCCC[C@@](C)(C(N)=O)NC(=O)[C@H](CO)NC(=O)[C@H](CC(=O)O)NC(=O)[C@H](Cc3c[nH]c4ccccc34)NC2=O)NC(=O)[C@H](CCC(=O)O)NC(=O)[C@H]([C@@H](C)O)NC(=O)[C@H](CC(C)C)NC1=O` [RNF31-NC Q2L, Ac-βAla Ser Arg Xaa Leu Thr Glu Xaa Gln Arg Gln Arg Leu Glu Pro Phe Arg Leu Arg Xaa Trp Asp Ser Xaa-NH2] (Ac-[βAla]SR[S5]LTE[S5]QRQRLEPFRLR[S5]WDS[S5]-NH2; staple 4-8, 20-24), the NF-κB activity result in the assay with NF-κB (ABC DLBCL cells, Example 10 (FIG. 8A)) is reported as “inhibited NF-κB activity; also recorded: greatest activity”. For the same compound, on RBCK1/RNF31 interaction (Example 9, tested as described in Example 7 (present tense)), the “Interference with LUBAC function” value was “interfere with LUBAC function”. Also, the “Cell viability (MTS)” value in the assay on ABC DLBCL cell lines (ABC DLBCL cells, Example 10 (FIG. 8C)) was “decreased cell viability; also recorded: greatest activity”. In addition, in the assay with IκBα, the “IκBα activity (IκBα-reporter)” value was “decreased IκBα activity; also recorded: greatest activity”.
